# Test results taken from PMC11770272, “Surface immobilization of single atoms on heteroatom-doped carbon nanospheres through phenolic-mediated interfacial anchoring for highly efficient biocatalysis” (Chemical Science, 2025).
# Test system: T1, natural horseradish peroxidase (HRP)
# T1 construct: gene PRXC1A
# Assay: steady-state kinetics, absorbance of oxidized TMB at […] nm
# Format: biochemical, Armoracia rusticana
# Details: H2O2 as co-substrate, HAc-NaAc buffer pH 3.6, 37 °C
smiles,measurement,value
Cc1cc(-c2cc(C)c(N)c(C)c2)cc(C)c1N [TMB],Km,1.65 mM
